Data: ChEMBL document CHEMBL1268872 (Bioorg Med Chem Lett, 2010)

Each compound was assayed against T1, Mitogen-activated protein kinase 14 (Homo sapiens, UniProt Q16539) (assay: Inhibition of p38alpha by fluoroprobe binding assay).
T1 sequence (Q16539 whole entry): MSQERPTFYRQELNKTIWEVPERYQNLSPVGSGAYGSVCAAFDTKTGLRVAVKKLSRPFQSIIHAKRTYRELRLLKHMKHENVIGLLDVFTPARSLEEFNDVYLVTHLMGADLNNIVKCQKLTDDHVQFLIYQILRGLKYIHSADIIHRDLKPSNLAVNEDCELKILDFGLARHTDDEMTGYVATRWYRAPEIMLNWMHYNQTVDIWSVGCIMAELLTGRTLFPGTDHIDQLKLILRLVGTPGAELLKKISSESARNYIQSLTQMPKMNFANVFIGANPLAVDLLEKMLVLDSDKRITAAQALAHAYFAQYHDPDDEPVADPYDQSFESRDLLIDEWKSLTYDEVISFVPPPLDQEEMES

IC50 [nM] | Structure (SMILES)
7 | CC(C)(C)c1cc(NC(=O)Nc2cccc(Cl)c2Cl)n(-c2ccc(CC(=O)N3CCS(=O)(=O)CC3)cc2)n1
> 10000 | CC(C)(C)c1cc(NC(=O)Nc2cccc3ccccc23)n(-c2cccc(C(=O)N3C(=O)OC[C@@H]3c3ccccc3)c2)n1

These compounds were tested against T1, Mitogen-activated protein kinase 14 (assay: Binding affinity to unphosphorylated p38alpha by fluoroprobe binding assay).

IC50 [nM] | Structure (SMILES)
119 | NC(=O)Cc1cccc(-n2nc(-c3ccccc3)cc2NC(=O)Nc2cccc(Cl)c2Cl)c1
25 | NC(=O)Cc1cccc(-n2nc(-c3ccccc3F)cc2NC(=O)Nc2cccc(Cl)c2Cl)c1

Structure (SMILES) | IC50 [nM]
NC(=O)Cc1cccc(-n2nc(-c3ccsc3)cc2NC(=O)Nc2cccc(Cl)c2Cl)c1 | 15

Each compound was assayed against T1, Mitogen-activated protein kinase 14 (assay: Binding affinity to phosphorylated p38alpha by fluoroprobe binding assay).

Structure (SMILES) | IC50 [nM]
NC(=O)Cc1cccc(-n2nc(-c3ccsc3)cc2NC(=O)Nc2cccc(Cl)c2Cl)c1 | 28
NC(=O)Cc1cccc(-n2nc(C3CCCC3)cc2NC(=O)Nc2cccc(Cl)c2Cl)c1 | 10
NC(=O)Cc1cccc(-n2nc(-c3ccccc3)cc2NC(=O)Nc2cccc(Cl)c2Cl)c1 | 79
NC(=O)Cc1cccc(-n2nc(-c3ccccc3F)cc2NC(=O)Nc2cccc(Cl)c2Cl)c1 | 40
NC(=O)Cc1cccc(-n2nc(-c3cccs3)cc2NC(=O)Nc2cccc(Cl)c2Cl)c1 | 66

These compounds were tested against T1, Mitogen-activated protein kinase 14 (assay: Binding affinity to unphosphorylated p38alpha assessed as change in melting temperature).

Structure (SMILES) | ΔTm [°C]
NC(=O)Cc1cccc(-n2nc(-c3ccsc3)cc2NC(=O)Nc2cccc(Cl)c2Cl)c1 | 11.6
NC(=O)Cc1cccc(-n2nc(C3CCCC3)cc2NC(=O)Nc2cccc(Cl)c2Cl)c1 | 12.2
NC(=O)Cc1cccc(-n2nc(-c3ccccc3)cc2NC(=O)Nc2cccc(Cl)c2Cl)c1 | 8
NC(=O)Cc1cccc(-n2nc(-c3ccccc3F)cc2NC(=O)Nc2cccc(Cl)c2Cl)c1 | 8.8
NC(=O)Cc1cccc(-n2nc(-c3cccs3)cc2NC(=O)Nc2cccc(Cl)c2Cl)c1 | 11.2

The remaining lines, values ahead:

ΔTm [°C] | Structure (SMILES)
9.1 | CC(C)(C)c1cc(NC(=O)Nc2cccc3ccccc23)n(-c2cccc(CC(N)=O)c2)n1
12.8 | CC(C)(C)c1cc(NC(=O)Nc2cccc(Cl)c2Cl)n(-c2cccc(CC(N)=O)c2)n1

What follows are compounds tested against T1, Mitogen-activated protein kinase 14 (assay: Binding affinity to phosphorylated p38alpha assessed as change in melting temperature).

Structure (SMILES) | ΔTm [°C]
NC(=O)Cc1cccc(-n2nc(-c3ccsc3)cc2NC(=O)Nc2cccc(Cl)c2Cl)c1 | 9.3
NC(=O)Cc1cccc(-n2nc(-c3ccccc3)cc2NC(=O)Nc2cccc(Cl)c2Cl)c1 | 5.4
NC(=O)Cc1cccc(-n2nc(-c3ccccc3F)cc2NC(=O)Nc2cccc(Cl)c2Cl)c1 | 7.1
NC(=O)Cc1cccc(-n2nc(-c3cccs3)cc2NC(=O)Nc2cccc(Cl)c2Cl)c1 | 8.5

Second part, the compound after the results:

ΔTm [°C] | Structure (SMILES)
8.6 | CC(C)(C)c1cc(NC(=O)Nc2cccc3ccccc23)n(-c2cccc(CC(N)=O)c2)n1
9.1 | CC(C)(C)c1cc(NC(=O)Nc2cccc(Cl)c2Cl)n(-c2cccc(CC(N)=O)c2)n1

The compounds below were run against T1, Mitogen-activated protein kinase 14 (assay: Inhibition of p38alpha autophosphorylation).

Structure (SMILES) | IC50 [µM]
NC(=O)Cc1cccc(-n2nc(-c3cccs3)cc2NC(=O)Nc2cccc(Cl)c2Cl)c1 | > 5

Each compound was assayed against Serine/threonine-protein kinase B-raf (Homo sapiens, UniProt P15056) (assay: Inhibition of BRAF).
Chain of Serine/threonine-protein kinase B-raf (P15056 whole entry): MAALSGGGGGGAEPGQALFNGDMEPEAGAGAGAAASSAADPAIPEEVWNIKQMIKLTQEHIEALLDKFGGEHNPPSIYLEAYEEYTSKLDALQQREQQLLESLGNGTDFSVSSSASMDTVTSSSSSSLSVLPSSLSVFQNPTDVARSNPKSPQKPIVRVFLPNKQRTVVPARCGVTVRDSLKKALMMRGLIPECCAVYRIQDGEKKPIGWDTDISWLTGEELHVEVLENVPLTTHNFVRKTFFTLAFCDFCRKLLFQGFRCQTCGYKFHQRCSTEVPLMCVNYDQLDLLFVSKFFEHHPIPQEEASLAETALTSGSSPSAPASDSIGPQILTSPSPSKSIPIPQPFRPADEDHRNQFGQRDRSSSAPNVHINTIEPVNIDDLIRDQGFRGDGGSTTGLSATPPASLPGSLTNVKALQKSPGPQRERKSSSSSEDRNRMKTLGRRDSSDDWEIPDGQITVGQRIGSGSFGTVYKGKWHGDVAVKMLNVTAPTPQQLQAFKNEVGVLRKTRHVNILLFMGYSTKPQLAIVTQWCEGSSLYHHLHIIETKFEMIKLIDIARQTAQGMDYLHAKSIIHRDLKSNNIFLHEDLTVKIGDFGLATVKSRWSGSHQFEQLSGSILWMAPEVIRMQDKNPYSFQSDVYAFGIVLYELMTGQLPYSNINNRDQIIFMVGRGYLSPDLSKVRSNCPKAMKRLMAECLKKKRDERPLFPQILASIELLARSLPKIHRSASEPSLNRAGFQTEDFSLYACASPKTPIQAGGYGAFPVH

IC50 [nM] | Structure (SMILES)
17 | CC(C)(C)c1cc(NC(=O)Nc2cccc(Cl)c2Cl)n(-c2cccc(CC(N)=O)c2)n1

These compounds were tested against T2, Ephrin type-B receptor 2 (Homo sapiens, UniProt P29323) (assay: Inhibition of EPHB2).
T2 sequence (P29323 whole entry): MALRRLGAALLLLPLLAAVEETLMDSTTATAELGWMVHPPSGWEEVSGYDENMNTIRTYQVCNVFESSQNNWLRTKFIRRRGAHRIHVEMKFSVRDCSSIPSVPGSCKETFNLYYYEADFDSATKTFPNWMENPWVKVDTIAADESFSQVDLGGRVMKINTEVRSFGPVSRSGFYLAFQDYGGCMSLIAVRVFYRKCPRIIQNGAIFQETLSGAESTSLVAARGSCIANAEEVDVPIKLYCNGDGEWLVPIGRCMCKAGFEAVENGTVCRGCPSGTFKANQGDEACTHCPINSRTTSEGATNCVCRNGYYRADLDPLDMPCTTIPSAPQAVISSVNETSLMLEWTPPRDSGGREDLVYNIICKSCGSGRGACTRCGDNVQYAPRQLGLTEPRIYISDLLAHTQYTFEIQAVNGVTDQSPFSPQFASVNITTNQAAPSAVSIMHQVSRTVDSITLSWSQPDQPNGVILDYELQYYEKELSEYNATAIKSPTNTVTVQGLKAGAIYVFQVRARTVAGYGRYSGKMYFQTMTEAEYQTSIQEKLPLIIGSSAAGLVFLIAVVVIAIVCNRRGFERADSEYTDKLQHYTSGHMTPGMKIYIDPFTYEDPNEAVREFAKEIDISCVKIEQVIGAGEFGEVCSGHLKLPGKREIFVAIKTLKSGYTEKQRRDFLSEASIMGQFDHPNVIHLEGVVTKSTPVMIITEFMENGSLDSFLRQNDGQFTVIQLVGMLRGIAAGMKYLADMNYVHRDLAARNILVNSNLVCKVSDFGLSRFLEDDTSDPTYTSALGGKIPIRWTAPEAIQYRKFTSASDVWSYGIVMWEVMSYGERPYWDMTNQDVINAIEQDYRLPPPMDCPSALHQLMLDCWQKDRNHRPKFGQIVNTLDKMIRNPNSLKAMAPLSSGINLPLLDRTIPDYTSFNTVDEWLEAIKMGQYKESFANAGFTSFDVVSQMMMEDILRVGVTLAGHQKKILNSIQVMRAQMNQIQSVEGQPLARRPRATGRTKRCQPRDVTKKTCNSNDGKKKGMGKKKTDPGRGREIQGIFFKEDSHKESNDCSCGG

Structure (SMILES) | IC50 [nM]
CC(C)(C)c1cc(NC(=O)Nc2cccc(Cl)c2Cl)n(-c2cccc(CC(N)=O)c2)n1 | 82
NC(=O)Cc1cccc(-n2nc(-c3cccs3)cc2NC(=O)Nc2cccc(Cl)c2Cl)c1 | > 50000
